Data reported in patent US10039282B2, “Six-membered C—N-bonded aryl sulphide and aryl sulphoxide derivatives as pesticides” (BAYER CROPSCIENCE AKTIENGESELLSCHAFT, priority 2013, dated 2018).
Where two headings read alike, the source gives them in different places.

Experiments:
Tetranychus urticae [1] = assay: Comparative Tetranychus urticae spray test, OP-resistant (TETRUR); assay type: in vivo; conditions: 144 h
Method: 2. Tetranychus urticae—Spray Test; OP-Resistant ([…])
(§1) Solvent: 78.0 parts by weight of acetone
(§2) • 1.5 parts by weight of dimethylformamide Emulsifier: alkylaryl polyglycol ether
(§3) To produce an appropriate active compound formulation, 1 part by weight of active compound is dissolved using the specified parts by weight of solvent and made up with water containing an emulsifier concentration of 1000 ppm until the desired concentration is attained. To produce further test concentrations, the preparation is diluted with emulsifier-containing water.
Discs of bean leaves (Phaseolus vulgaris) infested by all stages of the greenhouse red spider mite (Tetranychus urticae) are sprayed with an active compound formulation of the desired concentration.
After the desired period of time, the effect in % is determined 100% means that all the spider mites have been killed; 0% means that none of the spider mites have been killed.

Boophilus microplus = Boophilus microplus injection test; assay type: in vivo; conditions: 20 μg/animal, assessed after 7 days
Method: 1. Boophilus microplus—Injection Test
Solvent: dimethyl sulphoxide
To produce an appropriate active compound formulation, 10 mg of active compound are mixed with 0.5 ml of solvent and the concentrate is diluted with solvent to the desired concentration.
1 μl of the active compound solution is injected into the abdomen of 5 engorged adult female cattle ticks (Boophilus microplus). The animals are transferred into dishes and kept in a climate-controlled room.
The efficacy is assessed after 7 days by laying of fertile eggs. Eggs which are not visibly fertile are stored in a climate-controlled cabinet until the larvae hatch after about 42 days. An efficacy of 100% means that none of the ticks has laid any fertile eggs; 0% means that all the eggs are fertile.

Tetranychus urticae [2] = assay: Tetranychus urticae spray test, OP-resistant (bean leaf discs); assay type: in vivo; conditions: 500 g/ha, after 6 days
Method: 4. Tetranychus urticae—Spray Test, OP-Resistant
as §1, §2
To produce further test concentrations, the preparation is diluted with emulsifier-containing water.
After 6 days, the efficacy in % is determined. 100% means that all the spider mites have been killed; 0% means that none of the spider mites have been killed.

[3] = log P by reversed-phase HPLC analogously to OECD Guideline 117; assay type: physicochemical; conditions: reversed-phase C18 HPLC column
Method: The log P values were determined analogously to OECD Guideline 117 (EC Directive 92/69/EEC) by HPLC (high-performance liquid chromatography) using reversed-phase columns (C 18), by the following methods:
[a] The LC-MS determination in the acidic range is effected at pH 2.7 with 0.1% aqueous formic acid and acetonitrile (contains 0.1% formic acid) as eluents; linear gradient from 10% acetonitrile to 95% acetonitrile. log P^[…] is also referred to as log P(HCOOH). [b] LC-MS determination in the neutral range is effected at pH 7.8 with 0.001 molar aqueous ammonium hydrogencarbonate solution and acetonitrile as eluents; linear gradient from 10% acetonitrile to 95% acetonitrile. log P^[…] is also referred to as log P(neutral).
Calibration is effected with solutions of a homologous series of unbranched alkan-2-ones (having 3 to 16 carbon atoms) with known log P values (log P values determined on the basis of the retention times by linear interpolation between two successive alkanones).

Meloidogyne incognita [4] = assay: Meloidogyne incognita test (sand, lettuce, gall formation after 14 days); assay type: in vivo; conditions: 20 ppm
Method: 2. Meloidogyne Incognita Test
Solvent: 125.0 parts by weight of acetone
To produce an appropriate active compound formulation, 1 part by weight of active compound is mixed with the stated amount of solvent and the concentrate is diluted with water to the desired concentration.
Vessels are filled with sand, active compound solution, an egg/larvae suspension of the southern root-knot nematode (Meloidogyne incognita) and lettuce seeds. The lettuce seeds germinate and the plants develop. The galls develop on the roots.
After 14 days, the nematicidal efficacy in % is determined by the formation of galls. 100% means that no galls were found; 0% means that the number of galls on the treated plants corresponds to the untreated control.

Phaedon cochleariae [5] = assay: Phaedon cochleariae spray test; assay type: in vivo; conditions: 500 g/ha, after 7 days
Method: 3. Phaedon cochleariae—Spray Test
Solvent: 78.0 parts by weight of acetone • • 1.5 parts by weight of dimethylformamide Emulsifier: alkylaryl polyglycol ether
as §3
(§4) Discs of Chinese cabbage leaves (Brassica pekinensis) are sprayed with an active compound formulation of the desired concentration and, after drying, populated with larvae of the mustard beetle (Phaedon cochleariae).
After 7 days, the efficacy in % is determined 100% means that all the beetle larvae have been killed; 0% means that no beetle larvae have been killed.

Tetranychus urticae [6] = assay: Tetranychus urticae spray test, OP-resistant (bean plants); assay type: in vivo; conditions: 20 ppm, after 7 days
Method: 6. Tetranychus urticae—Spray Test, OP-Resistant
(§5) Solvent: 7 parts by weight of dimethylformamide
Emulsifier: alkylaryl polyglycol ether
as §3, with “water. If the addition of ammonium salts or/and penetrants is required, these are each added in a concentration of 1000 ppm to the formulation solution.” for “water.”
Bean plants (Phaseolus vulgaris) heavily infested by all stages of the greenhouse red spider mite (Tetranychus urticae) are treated by spraying with the active compound formulation in the desired concentration.
After 7 days, the efficacy in % is determined. 100% means that all the spider mites have been killed; 0% means that none of the spider mites have been killed.

Phaedon cochleariae [7] = assay: whole plant or invertebrate; assay type: in vivo; conditions: 168 h
Method: 1. Phaedon cochleariae—Spray Test (PHAECO)
as §1, §2, §3, §4
After the desired period of time, the effect in % is determined. 100% means that all the beetle larvae have been killed; 0% means that no beetle larvae have been killed.

Meloidogyne incognita [8] = assay: Meloidogyne incognita test (soil drench, gall formation after 21 days); assay type: in vivo; conditions: 8 ppm
Method: 5. Meloidogyne incognita Test
as §5
Emulsifier: 2.5 parts by weight of alkylaryl poly glycol ether
To produce an appropriate active compound formulation, 1 part by weight of active compound is mixed with the stated amounts of solvent and emulsifier, and the concentrate is diluted with water to the desired concentration, it being necessary to include the volume of soil which is drenched in the calculation. It should be ensured that a concentration of 20 ppm of emulsifier in the soil is not exceeded. To produce further test concentrations, water is used for dilution.
Pots filled with soil (loamy sand) are watered with the active compound solution. An egg/larvae suspension of the southern root-knot nematode (Meloidogyne incognita) is added, lettuce seeds are scattered over the surface of the soil, and they are covered over with quartz sand. The lettuce seeds germinate and the plants develop. The galls develop on the roots.
After 21 days, the nematicidal efficacy in % is determined by the formation of galls. 100% means that no galls have been found; 0% means that the number of galls on the treated plants corresponds to the untreated control.

[9] = acidic range, pH 2.7, 0.1% aqueous formic acid/acetonitrile, read-out: logP (HCOOH)
[10] = neutral range, pH 7.8, 0.001 molar aqueous ammonium hydrogencarbonate/acetonitrile, read-out: logP (neutral)

Structure (SMILES) | efficacy (no fertile eggs laid) (Boophilus microplus) [%] | efficacy (spider mites killed) (Tetranychus urticae [2]) [%] | nematicidal efficacy (formation of galls) (Meloidogyne incognita [4]) [%] | efficacy (beetle larvae killed) (Phaedon cochleariae [5]) [%] | also measured
Cc1cc(C)c([S+]([O-])CC(F)(F)F)cc1-n1cnc(C(F)(F)F)cc1=O (racemic) [Example 6, 3-[2,4-Dimethyl-5-(2,2,2-trifluoroethylsulphinyl)phenyl]-6-(trifluoromethyl)pyrimidin-4-one] | 100 | 100 | – | – | mortality at 20 g/ha (Tetranychus urticae [1]; TETRUR, 20 g/ha, 6 dat, read-out: % mortality): 100%; chromatographic logP [3, 9]: 2.43; chromatographic logP [3, 10]: 2.39
Cc1ccc(-n2cncc(C)c2=O)cc1[S+]([O-])CC(F)(F)F (racemic) [Example 27] | – | – | 90 | – | –
Cc1cc(C)c([S+]([O-])CC(F)(F)F)cc1-n1cnc(C(F)(F)C(F)(F)F)cc1=O (racemic) [Example 33] | – | 100 | 100 | – | –
O=c1cc(C(F)(F)F)ncn1-c1ccc(Cl)c([S+]([O-])CC(F)(F)F)c1 (racemic) [Example 34] | 100 | 100 | – | 83 | –
O=c1cc(C(F)(F)F)ncn1-c1cc([S+]([O-])CC(F)(F)F)c(Br)cc1F (racemic) [Example 41] | – | 100 | 90 | – | –
Cc1cc(C)c([S+]([O-])CC(F)(F)F)cc1-n1cnc(C(F)(F)C(F)(F)F)cc1=O (racemic) [Example 45] | – | 100 | 100 | – | –
Cc1cc(=O)n(-c2cc([S+]([O-])CC(F)(F)F)c(C)cc2F)cn1 (racemic) [Example 46] | – | 100 | – | 83 | –
Cc1cc(Cl)c(-n2cnc(C(F)(F)F)cc2=O)cc1[S+]([O-])CC(F)(F)F (racemic) [Example 53] | 100 | 100 | – | 100 | –
Cc1cc(F)c(-n2cnc(C(F)F)cc2=O)cc1[S+]([O-])CC(F)(F)F (racemic) [Example 55] | – | 100 | – | 100 | –
Cc1cc(F)c(-n2cnc(C(F)(F)C(F)(F)F)cc2=O)cc1[S+]([O-])CC(F)(F)F (single isomer, unassigned) [Example 18] | – | 100 | – | 83 | –
Cc1cc(F)c(-n2cnc(C(F)(F)C(F)(F)F)cc2=O)cc1[S+]([O-])CC(F)(F)F (single isomer, unassigned) [Example 26] | 100 | 100 | 90 | – | –
Cc1cc(C)c([S+]([O-])CC(F)(F)F)cc1-n1cnc(C(F)(F)F)cc1=O (single isomer, unassigned) [Example 49] | – | – | – | – | efficacy (spider mites killed) (Tetranychus urticae [6]): 100%
Cc1cc(C)c([S+]([O-])CC(F)(F)F)cc1-n1cnc(C(F)(F)F)cc1=O (single isomer, unassigned) [Example 56] | – | – | – | – | efficacy (spider mites killed) (Tetranychus urticae [6]): 100%
N#Cc1ccc(-n2cnc(C(F)(F)F)cc2=O)cc1[S+]([O-])CC(F)(F)F (centres unmarked) [4-[6-oxo-4-(trifluoromethyl)pyrimidin-1-yl]-2-(2,2,2-trifluoroethylsulphinyl)benzonitrile, reference compound] | – | – | – | – | mortality at 500 g/ha (Phaedon cochleariae [7]): 0%; mortality at 20 g/ha (Tetranychus urticae [1]): 0%
N#Cc1cc(F)c(-n2cnc(C(F)(F)F)cc2=O)cc1[S+]([O-])CC(F)(F)F (centres unmarked) [5-fluoro-4-[6-oxo-4-(trifluoromethyl)pyrimidin-1-yl]-2-(2,2,2-trifluoroethylsulphinyl)benzonitrile] | – | – | – | – | mortality at 500 g/ha (Phaedon cochleariae [7]): 50%
Cc1cc(F)c(-n2cnc(C(F)(F)F)cc2=O)cc1[S+]([O-])CC(F)(F)F (centres unmarked) [Example 2, 3-{2-Fluoro-4-methyl-5-[(2,2,2-trifluoroethyl)sulphinyl]phenyl}-6-(trifluoromethyl)pyrimidin-4(3H)-one] | 100 | 100 | – | 100 | mortality at 500 g/ha (Phaedon cochleariae [7]): 100%; nematicidal efficacy (formation of galls) (Meloidogyne incognita [8]): 85%; chromatographic logP [3, 9]: 2.4; chromatographic logP [3, 10]: 2.38
Cc1cc(C)c(-n2cnc(C(F)(F)F)cc2=O)cc1SCC(F)(F)F [Example 5, 3-[2,4-Dimethyl-5-(2,2,2-trifluoroethylsulphanyl)phenyl]-6-(trifluoromethyl)pyrimidin-4-one] | 100 | 100 | – | – | chromatographic logP [3, 9]: 3.56; chromatographic logP [3, 10]: 3.5
Cc1cc(F)c(-n2cnc(C(F)(F)C(F)(F)F)cc2=O)cc1SCC(F)(F)F [Example 9] | 100 | 100 | 90 | 100 | –
Cc1ccc(-n2cncc(F)c2=O)cc1SCC(F)(F)F [Example 12] | – | 90 | 90 | – | –
Cc1cc(C)c(-n2c(C)nc(C(F)(F)F)cc2=O)cc1SCC(F)(F)F [Example 30] | – | 100 | 90 | – | –
Cc1cc(=O)n(-c2cc(SCC(F)(F)F)c(C)cc2F)cn1 [Example 44] | – | 100 | – | 100 | –
